Experimental data taken from patent publication US20210252028A1, “SYNTHETIC COMPOSITION FOR MICROBIOTA MODULATION” (Glycom A/S, priority 2016, published 2021).

Assays:
[1] = system: B. adolescentis phylogenetic group; assay: ITS profiling of the Bifidobacterium community in faeces of healthy adults after 2 weeks of HMO consumption; format: in vivo, human; conditions: for percentage increase of B. adolescentis phylogenetic group: healthy adults, 2 weeks, faecal analyses
Protocol: (§1) A total of 100 male and female healthy adults are recruited to participate in the study. After a screening visit and run-in period of 1-2 weeks, the participants are selected and randomized into ten groups, each of 10 subjects. One group is administered a placebo product containing 2 grams of glucose. The remaining 9 groups are administered treatment product containing a) 20 g of 2′-FL, b) 10 g of 2′-FL, c) 5 g of 2′-FL, d) 20 g of LNnT, e) 10 g of LNnT, f) 5 g of LNnT, g) 20 g of a 2:1 mixture of 2′-FL and LNnT, h) 10 g of a 2:1 mixture of 2′-FL and LNnT, and i) 5 g of a 2:1 mixture of 2′-FL and LNnT for 2 weeks (the amounts correspond to a daily dosis). The placebo and treatment products are in powder form in a unit dosage container.
(§2) The study runs for 2 weeks with the participants consuming either a placebo or a treatment product daily. Participants are instructed to consume the products in the morning with breakfast. Compliance is monitored through the interactive internet enabled system.
(§3) To assess the Bifidobacterium community, ITS profiling of DNA samples is performed according to Milani et al. FEMS Microbiol. Ecol. 90, 493 (2014). […] Both B. adolescentis and B. pseudocatenulatum are members of the B. adolescentis phylogenetic group. It can be seen that oral ingestion of the HMOs clearly increases the abundance of B. adolescentis and/or B. pseudocatenulatum in the microbiota of healthy adults, as well as their relative abundance compared to the totality of other Bifidobacterium species.

[2] = system: totality of B. longum + B. bifidum + B. animalis lactis + B. angulatum; assay: as above; format: in vivo, human; conditions: faecal analyses
Protocol: as §1, §2, §3

Row | Compound | abundance of B. adolescentis and/or B. pseudocatenulatum and relative abundance compared to the totality of other Bifidobacterium species ([1]; healthy adults carrying the FUT2 mutation compared with secretors) | percentage increase of B. adolescentis phylogenetic group ([1]; daily dose 5 g) | percentage increase of B. adolescentis phylogenetic group ([1]; daily dose 10 g) | percentage increase of B. adolescentis phylogenetic group ([1]; daily dose 20 g) | percentage increase of totality of B. longum + B. bifidum + B. animalis lactis + B. angulatum ([2]; daily dose 5 g) | percentage increase of totality of B. longum + B. bifidum + B. animalis lactis + B. angulatum ([2]; daily dose 10 g) | percentage increase of totality of B. longum + B. bifidum + B. animalis lactis + B. angulatum ([2]; daily dose 20 g)
1 | 2′-fucosyllactose [2′-FL] | increases in a manner similar to those in secretors | 50% | 325% | 120% | 0% | 20% | 15%
2 | CC(=O)N[C@H]1[C@H](O[C@H]2[C@@H](O)[C@@H](CO)O[C@@H](O[C@H]3[C@H](O)[C@@H](O)C(O)O[C@@H]3CO)[C@@H]2O)O[C@H](CO)[C@@H](O[C@@H]2O[C@H](CO)[C@H](O)[C@H](O)[C@H]2O)[C@@H]1O (mixture of isomers) [LNnT, lacto-N-neotetraose] |  | 90% | 195% | 185% | 50% | 130% | 105%
